Experiments:
[1] = Ogbourne et al. 2004; cited from earlier work
B16 [2] = assay: In vitro cytotoxicity assay (SRB); assay type: cell-based, murine; details: 48 h, DMSO
Description: (§1) UV-13.1 and T7 cells are cultured in DMEM medium (Gibco Catalogue number 11960) supplemented with sodium-pyruvate (Gibco Catalogue number 11360-070, final concentration 1 mM), L-glutamine (Gibco, catalogue number 25030-081, final concentration 2 mM) and penicillin/streptomycin (Catalogue number 490269, diluted 1:100). B 16 cells are cultured in RPMI (QIMR) supplemented with 10% FBS and penicillin/streptomycin.
(§2) Cells are seeded with in 10,000 per microtitre wells in 100 μl of culture medium and incubated overnight to enable them to adhere to the bottom of the well. Quadruplicate wells aere treated with ingenol mebutate (PEP005 #250803 final concentration 0.232-232 μM) dissolved in DMSO (Sigma, D2650). […] Included in the assay were cells treated with vehicle alone (1% DMSO) and control. The treated cells are incubated at 37° C. for 48 h. Medium from the microtitre plates is tipped out; the wells are washed once with PBS to remove any excess FBS and then are fixed with methylated spirits for a minimum of 5 min. The methylated spirit is tipped off and the wells are washed once with tap water. A volume of 50 μl of sulforhodmain B (SRB) solution (0.4% SRB in 1% acetic acid) is added to each well and the plates are incubated at room temperature for a minimum of 15 min. The SRB solution is tipped off and the plates are washed twice with tap water and then twice with 1% acetic acid. The final wash of acetic acid is tapped out of the plate and 100 μl of 10 mM Tris base (unbuffered, pH>9) is added per well. The plate is incubated at room temperature for at least 5 min and then the absorbance is read on an ELISA plate reader at 564 nm.
(§3) To determine the in vitro sensitivity profile of T7 cells to ingenol mebutate treatment, a dose-response is generated by using the SRB stain to monitor cellular protein. Cells are seeded at high density and treated with ingenol mebutate (0.232-232 μM) for 48 h. The plates are fixed and are stained with SRB. […]
(§4) Cells are treated with 0.232-232 μM of ingenol mebutate. […] After 2 days, total protein is determined using SRB staining. […]

UV-13.1 = assay: In vitro cytotoxicity assay (SRB); assay type: cell-based, murine; details: 48 h, DMSO
Description: as §1, §2, §3, §4

T7 cells = assay: In vitro cytotoxicity assay (SRB); assay type: cell-based, murine; details: 48 h, DMSO
Description: as §1, §2, §3, §4

Tattoo studies = assay type: in vivo, SKH1/hr mice; details: 50 μl topically daily for 2 days (Days 12 & 13), followed to Day 232, n=5
Description: Fifteen SKH1/hr mice are tattooed on their dorsa with an about 1 cm×about 1 cm cross using human grade blue tattoo ink (Tattoo supplies Australia, Catalogue number FFMB) on Day 0. Once the tattooed area heals (after 12 days), the tattoo (about 100 mm^2) is topically treated daily for 2 days with 50 μl of PEP005 gel or placebo gel (Day 12 & Day 13). Two PEP005 doses are tested: 0.1% and 0.25% (w/v). The mice are examined over time to assess any changes to the tattooed area and photographs are taken.
The aim study is to determine whether PEP005 gel can remove tattoo markings when applied topically. Fifteen mice are tattooed with a cross on their dorsa. Twelve days after the tattoos are drawn, they are treated topically daily for 2 days with 0.1% PEP005, 0.25% PEP005 or placebo gel. The photographs in FIG. 1 show the tattoo just prior to the first treatment (Day 12), 24 h after the first treatment (Day 13) and at different time points after the second treatment (from Day 14 onwards). […] One week after the second dose, an eschar encompassing the whole treatment area forms. This contracts over time and fully resolves after about 3 weeks (Day 32). […] Six to seven months after the PEP005 treatment is applied, the treated area heals, leaving skin with a slight pink tinge. […] There is no change in the placebo treated tattoos over this time frame. […]

B16 [3] = details: Ogbourne et al. 2004; cited from earlier work
T7 tumours = assay: Challenge of ingenol mebutate cured mice with T7 cells; assay type: in vivo, SKH1/hr mice; details: challenge 110 or 159 days after cure with 0.25% topical
Description: To determine if cure of primary T7 tumours in inbred SKH1/hr mice would protect mice from subsequent challenge with the same tumour, T7 cells were injected s.c. in female SKH1/hr mice that had primary T7 tumours previously cured by topical treatment with 0.25% ingenol mebutate. There were 2 groups of mice, mice that had primary tumours cured by ingenol mebutate 110 (group 1) and 159 (group 2) days prior to challenge. Included in the study was a control group that had not previously received T7 or ingenol mebutate treatment. Tumour growth is monitored over time. Mice are culled when tumours reached 100 mm^2.
Mice are inoculated s.c. with 2×10^4 T7 cells 110 (Day 110) or 159 (Day 159) days post last treatment of primary tumour with ingenol mebutate. Tumour growth is monitored over time. Mice are sacrificed when tumour reached 100 mm^2. Survival curves are generated by assigning a death event when tumours reached 100 mm^2. Control mice had neither prior T7 nor ingenol mebutate treatment.

C/C=C(/C)C(=O)O[C@H]1C(C)=C[C@]23C(=O)[C@@H](C=C(CO)[C@@H](O)[C@]12O)[C@H]1[C@@H](C[C@H]3C)C1(C)C [ingenol mebutate]
LD90 values [1]: 180 to 220 µM
90% lethal dose (LD90) (B16 [2]): 100 to 110 µM
90% lethal dose (LD90) (UV-13.1): 100 to 110 µM
90% lethal dose (LD90) (T7 cells): 100 to 110 µM
removal of tattoo markings (Tattoo studies): eradication of the tattoo markings
LD90 (B16 [3]): 190 µM
protection against subsequent T7 challenge (T7 tumours): no protective effect
